Measured values from patent US20060116407A1, “Amide derivatives” (priority 2004, published 2006).

test system: HEK293 cells; experiment: Viability assay of HEK293 cells (CellTiter-Glo); type: cell-based; settings: Homo sapiens, 168 h, 7 days, 3 μM to 0.00015 μM, luminescence
Description: Viability Assay of HEK293 Cells
A viability assay was performed using the CellTiter-Glo™ Luminescent Cell Viability Assay (see Promega Corporation's Technical Publication No. 288, pp. 1-11 [revised 2.04] which is hereby incorporated by reference in its entirety). This assay is a homogeneous method of determining the number of viable cells in culture based on quantitation of the ATP present, which signals the presence of metabolically active cells. The assay is designed for use with multiwell formats, making it ideal for automated high-throughput screening (HTS), cell proliferation and cytotoxicity assays. The homogeneous assay procedure involves adding a single reagent (containing luciferase, luciferan substrate, and buffer) directly to cells cultured in serum-supplemented medium. Cell washing, removal of medium and multiple pipetting steps are not required. The system detects as few as 15 cells/well in a 384-well format in 10 minutes after adding reagent and mixing.
The homogeneous “add-mix-measure” format results in cell lysis and generation of a luminescent signal proportional to the amount of ATP present. The amount of ATP is directly proportional to the number of cells present in culture. The above-referenced assay generates a “glow-type” luminescent signal, produced by the luciferase reaction, which has a half-life generally greater than five hours, depending on cell type and medium used. The extended half-life eliminates the need to use reagent injectors and provides flexibility for continuous or batch mode processing of multiple plates. The unique homogeneous format avoids errors that may be introduced by other ATP measurement methods that require multiple steps.
HEK293 cells (human embryonic kidney cell line transformed by Adenovirus 5 fragments, ATCC-No. CRL 1573) were cultivated in Dulbecco's Modified Eagle Medium (DMEM) (1×) liquid (high glucose) (which includes L-Alanyl-L-Glutamine [a stabilized a form of L-Glutamine], 4500 mg/L glucose, and 110 mg/L sodium pyruvate) from Invitrogen Corporation (Invitrogen Catalog Number 31966-021 [now 10569-010] which is hereby incorporated by reference in its entirety), 5% Fetal Calf Serum (FCS, Sigma Cat-No. F4135 (FBS) which is hereby incorporated by reference in its entirety), and 100 Units/ml penicillin/100 μg/ml streptomycin(=Pen/Strep from Invitrogen Cat. No. 15140 which is hereby incorporated by reference in its entirety). For the assay the cells were seeded in 384 well plates, 5000 cells per well, in the same medium. The next day the test compounds were added in various concentrations ranging from 3 μM to 0.00015 μM (10 concentrations, 1:3 diluted). After 7 days the above viability assay was performed in accordance with the following steps: • Step 1: The cell-plate was equilibrated to room temperature for approximately 30 minutes and than the assay reagent was added. • Step 2: The contents were carefully mixed for 15 minutes to induce cell lysis. • Step 3: After 45 minutes the luminescent signal was measured in Victor 2, (scanning multiwell spectrophotometer, Wallac). Details: 1st Day: • Medium: Dulbecco's Modified Eagle Medium (DMEM) (1×) liquid (high glucose) (which includes L-Alanyl-L-Glutamine [a stabilized a form/source of L-Glutamine], 4500 mg/L glucose, and 110 mg/L sodium pyruvate) from Invitrogen Corporation (Invitrogen Catalog Number 31966-021 [now 10569-010]), 5% Fetal Calf Serum (FCS, Sigma Cat-No. F4135 (FBS)), and Pen/Strep (Invitrogen Cat. No. 15140). • HEK293 (ATCC-No. CRL 1573): 5000 cells in 60 μl per well of 384 well plate. (Greiner 781098, white plates) • Incubate 24 h at 37° C., 5% CO2 2nd Day: Induction (Substance Testing):
In general the dilution steeps are 1:3 a) Add 8 μl of 10 mM stock solution of compound to 72 μl DMSO b) dilute 9×1:3 (always 30 μl to 60 μl DMSO) in this DMSO dilution row (results in 10 wells with concentrations from 1000 μM to 0.06 μM) c) dilute each concentration 1: 4.8 (10 μl compound dilution to 38 μl medium) […]

Compound	IC50 [nM]
Cc1ccc(C(=O)Nc2nc(COc3ccc(CCCCn4ccnn4)cc3)cs2)cc1 [Example 52-14, 4-Methyl-N-{4-[4-(4-[1,2,3]triazol-1-yl-butyl)-phenoxymethyl]-thiazol-2-yl}-benzamide]	5 to 500
CN(C(=O)c1coc(COc2ccc(CCCCn3ccnn3)cc2)n1)c1ccc(OC(F)(F)F)cc1 [Example 30, 2-[4-(4-[1,2,3]Triazol-1-yl-butyl)-phenoxymethyl]-oxazole-4-carboxylic acid methyl-(4-trifluoromethoxy-phenyl)-amide]	5 to 500
Cc1ccc(NC(=O)c2coc(COc3ccc(CCCCn4ccnn4)cc3)n2)cc1 [Example 28, 2-[4-(4-[1,2,3]Triazol-1-yl-butyl)-phenoxymethyl]-oxazole-4-carboxylic acid p-tolylamide]	500 to 3000
O=C(Nc1ccc(Cl)cc1)c1coc(COc2ccc(CCCCn3ccnn3)cc2)n1 [Example 6, 2-[4-(4-[1,2,3]Triazol-1-yl-butyl)-phenoxymethyl]-oxazole-4-carboxylic acid (4-chloro-phenyl)-amide]	500 to 3000
O=C(Nc1nc(COc2ccc(CCCCn3ccnn3)cc2)cs1)c1cccc(Cl)c1 [Example 52-12, 3-Chloro-N-{4-[4-(4-[1,2,3]triazol-1-yl-butyl)-phenoxymethyl]-thiazol-2-yl}-benzamide]	5 to 500
O=C(Nc1cc(F)cc(F)c1)c1coc(COc2ccc(CCCCn3ccnn3)cc2)n1 [Example 5, 2-[4-(4-[1,2,3]Triazol-1-yl-butyl)-phenoxymethyl]-oxazole-4-carboxylic acid (3,5-difluoro-phenyl)-amide]	5 to 500
Cc1cc(OCc2nc(C(=O)Nc3cccc(Cl)c3)co2)ccc1CCCCn1ccnn1 [Example 48, 2-[3-Methyl-4-(4-[1,2,3]triazol-1-yl-butyl)-phenoxymethyl]-oxazole-4-carboxylic acid (3-chloro-phenyl)-amide]	5 to 500
O=C(Nc1nc(COc2ccc(CCCCn3ccnn3)cc2)cs1)c1ccccc1Cl [Example 52-16, 2-Chloro-N-{4-[4-(4-[1,2,3]triazol-1-yl-butyl)-phenoxymethyl]-thiazol-2-yl}-benzamide]	500 to 3000
O=C(Nc1nc(COc2ccc(CCCCn3ccnn3)cc2)cs1)c1cc(F)ccc1F [Example 52-15, 2,5-Difluoro-N-{4-[4-(4-[1,2,3]triazol-1-yl-butyl)-phenoxymethyl]-thiazol-2-yl}-benzamide]	5 to 500
O=C(Nc1nc(COc2ccc(CCCCn3ccnn3)cc2)cs1)c1ccc(F)c(Cl)c1 [Example 52-19, 3-Chloro-4-fluoro-N-{4-[4-(4-[1,2,3]triazol-1-yl-butyl)-phenoxymethyl]-thiazol-2-yl}-benzamide]	5 to 500
O=C(Nc1nc(COc2ccc(CCCCn3ccnn3)cc2)cs1)c1ccc(Cl)c(Cl)c1 [Example 52-9, 3,4-Dichloro-N-{4-[4-(4-[1,2,3]triazol-1-yl-butyl)-phenoxymethyl]-thiazol-2-yl}-benzamide]	5 to 500
O=C(Nc1ccc(SC(F)F)cc1)c1coc(COc2ccc(CCCCn3ccnn3)cc2)n1 [Example 8, 2-[4-(4-[1,2,3]Triazol-1-yl-butyl)-phenoxymethyl]-oxazole-4-carboxylic acid (4-difluoromethylsulfanyl-phenyl)-amide]	5 to 500
O=C(Nc1c(Cl)cccc1Cl)c1coc(COc2ccc(CCCCn3ccnn3)cc2)n1 [Example 44, 2-[4-(4-[1,2,3]Triazol-1-yl-butyl)-phenoxymethyl]-oxazole-4-carboxylic acid (2,6-dichloro-phenyl)-amide]	5 to 500
O=C(Nc1ccccc1F)c1coc(COc2ccc(CCCCn3ccnn3)cc2)n1 [Example 33, 2-[4-(4-[1,2,3]Triazol-1-yl-butyl)-phenoxymethyl]-oxazole-4-carboxylic acid (2-fluoro-phenyl)-amide]	5 to 500
CSc1ccc(NC(=O)c2coc(COc3ccc(CCCCn4ccnn4)cc3)n2)cc1 [Example 24, 2-[4-(4-[1,2,3]Triazol-1-yl-butyl)-phenoxymethyl]-oxazole-4-carboxylic acid (4-methylsulfanyl-phenyl)-amide]	1060
O=C(Nc1nc(COc2ccc(CCCCn3ccnn3)cc2)cs1)c1cccc(F)c1 [Example 52-25, 3-Fluoro-N-{4-[4-(4-[1,2,3]triazol-1-yl-butyl)-phenoxymethyl]-thiazol-2-yl}-benzamide]	5 to 500
Cc1cc(F)ccc1NC(=O)c1coc(COc2ccc(CCCCn3ccnn3)cc2)n1 [Example 25, 2-[4-(4-[1,2,3]Triazol-1-yl-butyl)-phenoxymethyl]-oxazole-4-carboxylic acid (4-fluoro-2-methyl-phenyl)-amide]	5 to 500
Cc1cc(OCc2nc(C(=O)Nc3ccc(C(F)(F)F)cc3)co2)ccc1CCCCn1ccnn1 [Example 46, 2-[3-Methyl-4-(4-[1,2,3]triazol-1-yl-butyl)-phenoxymethyl]-oxazole-4-carboxylic acid (4-trifluoromethyl-phenyl)-amide]	5 to 500
O=C(Nc1nc(COc2ccc(CCCCn3ccnn3)cc2)cs1)c1cc(F)cc(F)c1 [Example 52-23, 3,5-Difluoro-N-{4-[4-(4-[1,2,3]triazol-1-yl-butyl)-phenoxymethyl]-thiazol-2-yl}-benzamide]	5 to 500
O=C(Nc1nc(COc2ccc(CCCCn3ccnn3)cc2)cs1)c1ccc(SC(F)(F)F)cc1 [Example 52-7, N-{4-[4-(4-[1,2,3]Triazol-1-yl-butyl)-phenoxymethyl]-thiazol-2-yl}-4-trifluoromethylsulfanyl-benzamide]	5 to 500
O=C(Nc1nc(COc2ccc(CCCCn3ccnn3)cc2)cs1)c1ccc(OC(F)(F)F)cc1 [Example 52-4, N-{4-[4-(4-[1,2,3]Triazol-1-yl-butyl)-phenoxymethyl]-thiazol-2-yl}-4-trifluoromethoxy-benzamide]	5 to 500
Cc1cc(OCc2nc(C(=O)Nc3cccc(Cl)c3)cs2)ccc1CCCCn1ccnn1 [Example 51, 2-[3-Methyl-4-(4-[1,2,3]triazol-1-yl-butyl)-phenoxymethyl]-thiazole-4-carboxylic acid (3-chloro-phenyl)-amide]	5 to 500
O=C(Nc1ccc(C(F)(F)F)cc1[N+](=O)[O-])c1coc(COc2ccc(CCCCn3ccnn3)cc2)n1 [Example 4, 2-[4-(4-[1,2,3]Triazol-1-yl-butyl)-phenoxymethyl]-oxazole-4-carboxylic acid (2-nitro-4-trifluoromethyl-phenyl)-amide]	127
O=C(Nc1nc(COc2ccc(CCCCn3ccnn3)cc2)cs1)c1cccc(C(F)(F)F)c1 [Example 52-2, N-{4-[4-(4-[1,2,3]Triazol-1-yl-butyl)-phenoxymethyl]-thiazol-2-yl}-3-trifluoromethyl-benzamide]	500 to 3000
O=C(Nc1ccc(Cl)c(C(F)(F)F)c1)c1coc(COc2ccc(CCCCn3ccnn3)cc2)n1 [Example 27, 2-[4-(4-[1,2,3]Triazol-1-yl-butyl)-phenoxymethyl]-oxazole-4-carboxylic acid (4-chloro-3-trifluoromethyl-phenyl)-amide]	5 to 500
CN(C(=O)c1coc(COc2ccc(CCCCn3ccnn3)cc2)n1)c1ccccc1 [Example 29, 2-[4-(4-[1,2,3]Triazol-1-yl-butyl)-phenoxymethyl]-oxazole-4-carboxylic acid methyl-phenyl-amide]	500 to 3000
O=C(Nc1ccc(F)c([N+](=O)[O-])c1)c1coc(COc2ccc(CCCCn3ccnn3)cc2)n1 [Example 21, 2-[4-(4-[1,2,3]Triazol-1-yl-butyl)-phenoxymethyl]-oxazole-4-carboxylic acid (4-fluoro-3-nitro-phenyl)-amide]	5 to 500
